Experimental data reported in US11912703B2, “6-azaindole compounds” (BRISTOL-MYERS SQUIBB COMPANY, priority 2017, dated 2024).
Read-outs that look alike come from different tables or passages of the source.

Legend:
human TLR9 = human TLR9 (Homo sapiens (Human), UniProt Q9NR96); experiment: TLR9 inhibition reporter assay (HEK-Blue SEAP);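 further: SEAP driven by IFN-β minimal promoter carrying five NF-κB and AP-1 sites, 22 h at 37 °C, compounds 0.05 nM–50 µM, inhibition scaled between agonist-plus-DMSO and reference-inhibitor wells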
human TLR7 = human TLR7 (Homo sapiens (Human), UniProt Q9NYK1); experiment: TLR7 inhibition reporter assay (HEK-Blue SEAP); type: cell-based; conditions: HEK-Blue cells overexpressing human TLR7, gardiquimod 7.5 μM stimulation
human TLR8 = human TLR8 (Homo sapiens (Human), UniProt Q9NR97); experiment: TLR8 inhibition reporter assay (HEK-Blue SEAP);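 further: SEAP driven by IFN-β minimal promoter with five NF-κB and AP-1 sites, compounds tested 0.05 nM to 50 µM, 22 h incubation, inhibition relative to agonist plus DMSO wells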
[1] = read-out: TLR9 IC50; HEK-Blue cells overexpressing human TLR9, ODN2006 5 nM stimulation, SEAP reporter
[2] = read-out: TLR8 IC50; HEK-Blue cells overexpressing human TLR8, R848 15.9 μM stimulation, SEAP reporter
[3] = read-out: TLR9 IC50; HEK-Blue cells overexpressing human TLR9; ODN2006 5 nM stimulation; SEAP reporter
[4] = read-out: TLR8 IC50; HEK-Blue cells overexpressing human TLR8; R848 15.9 μM stimulation; SEAP reporter

Sequence of human TLR8 (Q9NR97 27-1041): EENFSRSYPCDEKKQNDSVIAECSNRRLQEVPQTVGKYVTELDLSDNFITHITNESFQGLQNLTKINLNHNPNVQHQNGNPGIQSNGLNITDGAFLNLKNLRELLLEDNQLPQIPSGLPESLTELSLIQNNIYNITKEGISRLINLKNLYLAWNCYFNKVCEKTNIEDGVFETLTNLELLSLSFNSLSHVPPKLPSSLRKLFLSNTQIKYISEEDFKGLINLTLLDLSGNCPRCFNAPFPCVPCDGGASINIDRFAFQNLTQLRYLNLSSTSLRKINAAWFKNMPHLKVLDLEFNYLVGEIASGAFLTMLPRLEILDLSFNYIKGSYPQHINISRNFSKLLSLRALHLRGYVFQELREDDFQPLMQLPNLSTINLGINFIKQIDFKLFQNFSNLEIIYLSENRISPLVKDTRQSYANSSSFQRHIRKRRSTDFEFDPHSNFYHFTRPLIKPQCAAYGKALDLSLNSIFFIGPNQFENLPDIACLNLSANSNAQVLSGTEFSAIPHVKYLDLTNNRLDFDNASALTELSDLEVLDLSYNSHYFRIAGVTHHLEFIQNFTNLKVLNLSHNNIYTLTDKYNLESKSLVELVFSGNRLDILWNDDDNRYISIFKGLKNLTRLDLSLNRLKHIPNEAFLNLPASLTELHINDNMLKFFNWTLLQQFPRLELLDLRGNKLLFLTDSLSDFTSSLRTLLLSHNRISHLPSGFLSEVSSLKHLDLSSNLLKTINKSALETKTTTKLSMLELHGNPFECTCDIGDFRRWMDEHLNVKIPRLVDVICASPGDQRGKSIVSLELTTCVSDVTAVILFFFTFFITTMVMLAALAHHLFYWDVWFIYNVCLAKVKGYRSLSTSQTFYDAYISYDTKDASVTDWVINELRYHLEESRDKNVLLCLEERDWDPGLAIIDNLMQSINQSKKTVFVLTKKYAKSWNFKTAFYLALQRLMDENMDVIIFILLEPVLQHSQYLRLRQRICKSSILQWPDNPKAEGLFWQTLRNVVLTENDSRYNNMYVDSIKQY
Sequence of human TLR7 (Q9NYK1 27-1049): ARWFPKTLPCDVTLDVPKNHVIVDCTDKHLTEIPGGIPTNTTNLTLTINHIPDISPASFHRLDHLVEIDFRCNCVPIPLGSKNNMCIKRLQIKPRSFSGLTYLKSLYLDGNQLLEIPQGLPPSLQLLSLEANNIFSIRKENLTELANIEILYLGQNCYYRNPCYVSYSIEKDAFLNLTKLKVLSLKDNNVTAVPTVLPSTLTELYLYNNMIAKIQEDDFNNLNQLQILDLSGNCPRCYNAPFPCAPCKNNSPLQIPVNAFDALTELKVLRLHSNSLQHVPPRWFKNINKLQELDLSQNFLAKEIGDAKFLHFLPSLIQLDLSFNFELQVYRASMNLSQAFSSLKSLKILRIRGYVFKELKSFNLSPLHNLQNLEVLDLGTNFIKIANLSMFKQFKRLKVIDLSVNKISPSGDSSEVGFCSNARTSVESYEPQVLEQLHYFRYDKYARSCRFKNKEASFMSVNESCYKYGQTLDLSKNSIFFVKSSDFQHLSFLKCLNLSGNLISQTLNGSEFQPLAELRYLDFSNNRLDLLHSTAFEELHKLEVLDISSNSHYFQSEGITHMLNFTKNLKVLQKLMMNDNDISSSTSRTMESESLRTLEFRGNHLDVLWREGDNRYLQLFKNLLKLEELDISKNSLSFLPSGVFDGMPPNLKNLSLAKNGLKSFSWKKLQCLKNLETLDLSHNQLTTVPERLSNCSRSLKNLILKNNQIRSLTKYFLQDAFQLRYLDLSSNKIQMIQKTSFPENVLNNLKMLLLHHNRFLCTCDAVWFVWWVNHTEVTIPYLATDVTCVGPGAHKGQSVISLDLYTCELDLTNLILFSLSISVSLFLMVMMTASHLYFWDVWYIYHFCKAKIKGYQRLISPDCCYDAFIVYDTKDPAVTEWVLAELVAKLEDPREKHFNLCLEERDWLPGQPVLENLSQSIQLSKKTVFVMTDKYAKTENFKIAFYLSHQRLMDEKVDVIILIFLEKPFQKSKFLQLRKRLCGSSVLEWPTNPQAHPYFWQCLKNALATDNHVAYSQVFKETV
Sequence of human TLR9 (Q9NR96 26-1032): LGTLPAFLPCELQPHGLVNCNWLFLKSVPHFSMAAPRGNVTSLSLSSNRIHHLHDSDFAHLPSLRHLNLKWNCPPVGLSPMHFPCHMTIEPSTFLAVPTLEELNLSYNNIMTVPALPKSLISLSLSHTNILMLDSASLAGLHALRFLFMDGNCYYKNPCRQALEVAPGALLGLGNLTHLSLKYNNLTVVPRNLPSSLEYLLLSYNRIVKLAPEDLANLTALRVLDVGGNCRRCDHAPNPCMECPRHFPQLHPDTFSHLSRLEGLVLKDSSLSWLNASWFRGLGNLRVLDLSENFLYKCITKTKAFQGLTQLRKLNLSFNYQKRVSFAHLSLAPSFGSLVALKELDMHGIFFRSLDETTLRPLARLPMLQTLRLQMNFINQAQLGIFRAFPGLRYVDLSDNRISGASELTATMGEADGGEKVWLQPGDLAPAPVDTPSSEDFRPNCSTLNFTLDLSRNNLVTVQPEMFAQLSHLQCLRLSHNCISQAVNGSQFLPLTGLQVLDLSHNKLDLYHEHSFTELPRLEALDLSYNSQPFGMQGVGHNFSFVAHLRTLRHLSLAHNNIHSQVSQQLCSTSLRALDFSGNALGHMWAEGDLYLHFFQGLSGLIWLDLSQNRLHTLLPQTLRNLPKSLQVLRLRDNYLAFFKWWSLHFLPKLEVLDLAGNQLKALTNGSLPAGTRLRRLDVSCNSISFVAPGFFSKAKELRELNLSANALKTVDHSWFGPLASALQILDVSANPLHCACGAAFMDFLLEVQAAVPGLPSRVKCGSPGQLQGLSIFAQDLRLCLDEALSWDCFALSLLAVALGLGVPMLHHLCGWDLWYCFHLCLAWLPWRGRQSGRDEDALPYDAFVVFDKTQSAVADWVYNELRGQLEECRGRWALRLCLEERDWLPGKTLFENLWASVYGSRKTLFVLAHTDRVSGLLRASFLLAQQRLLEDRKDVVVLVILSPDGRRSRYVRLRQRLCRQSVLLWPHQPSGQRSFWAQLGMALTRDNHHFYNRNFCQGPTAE

SMILES | IC50 (human TLR9; [1]) [nM] | IC50 (human TLR7) [nM] | IC50 (human TLR8; [2]) [nM] | IC50 (human TLR9; [3]) [nM] | IC50 (human TLR8; [4]) [nM]
Cc1c(N2CCC(NCC(C)(C)O)CC2)ncc2[nH]c(-c3cc(C)c4ncnn4c3)c(C(C)C)c12 [Example 283] | 1620 | 0.46 | 0.27 |  | 
Cc1cc(-c2[nH]c3cnc(C4CCN(C(=O)CN(C)C)CC4)c(F)c3c2C(C)C)cn2ncnc12 [Example 65] | 3320 | 2.2 | 5.6 |  | 
COc1cc(-c2[nH]c3cnc(C4CCC(N5CCC5)CC4)c(F)c3c2C(C)C)cn2ncnc12 (stereo not drawn) [Example 75] | 447 | 2.5 | 5.6 |  | 
CNC(=O)CN1CCC(c2ncc3[nH]c(-c4cc(C)c5ncnn5c4)c(C(C)C)c3c2F)CC1 [Example 181] | 6550 | 1.5 | 5 |  | 
COc1cc(-c2[nH]c3cnc(N4CCN(CC5CC5)C[C@H]4C)c(F)c3c2C(C)C)cn2ncnc12 [Example 442] | 7490 | 2.5 | 7.1 |  | 
COc1cc(-c2[nH]c3cnc(N4CCN(C(=O)CN(C)C)CC4)c(C)c3c2C(C)C)cn2ncnc12 [Example 154] | 1220 | 4 | 4.4 |  | 
Cc1c(-c2[nH]c3cnc(C4CCC(N(C)C(C)C)CC4)c(F)c3c2C(C)C)cn2ncnc2c1C (stereo not drawn) [Example 168] | 17500 | 3.6 | 4.5 |  | 
COc1cc(-c2[nH]c3cnc(N4CCN(C(C)C)C[C@H]4C)c(F)c3c2C(C)C)cn2ncnc12 [Example 443] | 6550 | 4 | 9.3 |  | 
CNC(=O)CN1CC2(C1)CN(c1ncc3[nH]c(-c4cn5ncnc5c(C)c4C)c(C(C)C)c3c1F)C2 [Example 395, 2-(6-(2-(7,8-dimethyl-[1,2,4]triazolo[1,5-a]pyridin-6-yl)-4-fluoro-3-isopropyl-1H-pyrrolo[2,3-c]pyridin-5-yl)-2,6-diazaspiro[3.3]heptan-2-yl)-N-methylacetamide] | 17500 | 44 | 6.6 |  | 
Cc1c(-c2[nH]c3cnc(N4CCC(NCC5(C)COC5)CC4)c(C)c3c2C(C)C)cn2ncnc2c1C [Example 54] | 935 | 0.9 | 0.3 |  | 
Cc1cc(-c2[nH]c3cnc(C4CCC(NCC(C)(C)O)CC4)c(F)c3c2C(C)C)cn2ncnc12 (stereo not drawn) [Example 49] | 2430 | 0.46 | 0.62 |  | 
Cc1cc(-c2[nH]c3cnc(C4CCC(N5CC6(COC6)C5)CC4)c(F)c3c2C(C)C)cn2ncnc12 (stereo not drawn) [Example 132] | 2130 | 3.4 | 5 |  | 
Cc1c(-c2[nH]c3cnc(C4CCC(NC5CCOCC5)CC4)c(F)c3c2C(C)C)cn2ncnc2c1C (stereo not drawn) [Example 232] |  | 11 |  | 4500 | 3.2
COc1cc(-c2[nH]c3cnc(N4CCN(C(C)C)CC4)c(F)c3c2C(C)C)cn2ncnc12 [Example 384] | 3260 | 0.96 | 0.55 |  | 
COc1cc(-c2[nH]c3cnc(C4CCC(NCC(C)(C)C)CC4)cc3c2C(C)C)cn2ncnc12 (stereo not drawn) [Example 310] | 640 | 13 | 32 |  | 
Cc1c(-c2[nH]c3cnc(C4CCC(NC5CCOC5)CC4)cc3c2C(C)C)cn2ncnc2c1C (stereo not drawn) [Example 349] | 344 | 1.1 | 3.6 |  | 
Cc1cc(-c2[nH]c3cnc(C4CCN(C(=O)CN(C)C)CC4)c(F)c3c2C(C)C)cc(C)n1 [Example 185] | 1550 | 6.2 | 7.8 |  | 
COc1cc(-c2[nH]c3cnc(C4CCC(NC5COC5)CC4)cc3c2C(C)C)cn2ncnc12 (stereo not drawn) [Example 330] | 255 | 1.1 | 5.5 |  | 
Cc1c(-c2[nH]c3cnc(N4CCN(CC(C)(C)O)CC4)c(F)c3c2C(C)C)cn2ncnc2c1C [Example 426] | > 50000 | 30 | 0.54 |  | 
COc1cc(-c2[nH]c3cnc(N4CCC(NCC(N)=O)CC4)cc3c2C(C)C)cn2ncnc12 [Example 345] | 712 | 11 | 13 |  | 
Cc1c(-c2[nH]c3cnc(C4CCC(NC5CCOCC5)CC4)c(C)c3c2C(C)C)cn2ncnc2c1C (stereo not drawn) [Example 119] | 558 | 8.1 | 11 |  | 
CCN(C)C1CCN(c2ncc3[nH]c(-c4cc(OC)c5ncnn5c4)c(C(C)C)c3c2C)CC1 [Example 138] | 1900 | 0.26 | 0.49 |  | 
Cc1cc(-c2[nH]c3cnc(N4CCC(N(C)C)CC4)c(F)c3c2C(C)C)cn2ncnc12 [Example 256] | 15400 | 1.4 | 1.2 |  | 
COc1cc(-c2[nH]c3cnc(C4CCC(NC5COC5)CC4)cc3c2C(C)C)cn2ncnc12 (stereo not drawn) [Example 308] | 159 | 7.9 | 25 |  | 

SMILES | IC50 (human TLR9; [1]) [nM] | IC50 (human TLR7) [nM] | IC50 (human TLR8; [2]) [nM] | IC50 (human TLR9; [3]) [nM] | IC50 (human TLR8; [4]) [nM]
Cc1c(-c2[nH]c3cnc(C4CCC(NC[C@@H](F)C(C)(C)O)CC4)c(F)c3c2C(C)C)cn2ncnc2c1C (stereo partly drawn) [Example 240] | 2780 | 0.96 | 0.39 |  | 
COc1cc(-c2[nH]c3cnc(C4CCN(CCS(C)(=O)=O)CC4)c(C)c3c2C(C)C)cn2ncnc12 [Example 25] | 188 | 2.3 | 7.2 |  | 
Cc1c(-c2[nH]c3cnc(N4CC5(C4)CN(C(C)C)C5)c(F)c3c2C(C)C)cn2ncnc2c1C [Example 403] | 9260 | 25 | 1.7 |  | 
Cc1cc(-c2[nH]c3cnc(C4CCC(NC5COC5)CC4)c(F)c3c2C(C)C)cn2ncnc12 (stereo not drawn) [Example 107] | 2060 | 3.6 | 4.5 |  | 
Cc1c(-c2[nH]c3cnc(C4CCC(NCC(C)(C)O)CC4)c(C)c3c2C(C)C)cn2ncnc2c1C (stereo not drawn) [Example 92] | 548 | 34 | 32 |  | 
CCN(C)C1CCC(c2cc3c(C(C)C)c(-c4cc(OC)c5ncnn5c4)[nH]c3cn2)C1 (stereo not drawn) [Example 272] | 391 | 7 | 22 |  | 
Cc1cc(-c2[nH]c3cnc(C4CCN(C(C)C)CC4)c(F)c3c2C(C)C)cc(C)n1 [Example 97] | 1080 | 2.5 | 7.4 |  | 
COc1cc(-c2[nH]c3cnc(C4CCC(N(CC#N)C5COC5)CC4)c(F)c3c2C(C)C)cn2ncnc12 (stereo not drawn) [Example 114] | 17400 | 4.8 | 6.6 |  | 
Cc1cc(-c2[nH]c3cnc(C4CCN(C(C)C)CC4)c(F)c3c2C(C)C)cn2ncnc12 [Example 212] | 2080 | 1.6 | 3.8 |  | 
Cc1c(-c2[nH]c3cnc(C4CCC(NCC(C)(C)C)CC4)cc3c2C(C)C)cn2ncnc2c1C (stereo not drawn) [Example 337] | 777 | 3.9 | 4 |  | 
CCN(C)C1CCC(c2ncc3[nH]c(-c4cc(OC)c5ncnn5c4)c(C(C)C)c3c2C)CC1 (stereo not drawn) [Example 268] | 757 | 4.8 | 17 |  | 
CCCN1CCN(c2ncc3[nH]c(-c4cn5ncnc5c(C)c4C)c(C(C)C)c3c2F)[C@H](C)C1 [Example 455] |  | 0.59 |  | 14600 | 0.17
COc1cc(-c2[nH]c3cnc(C4CCC(NCC(C)(C)OC)C4)cc3c2C(C)C)cn2ncnc12 (stereo not drawn) [Example 123] | 1110 | 26 | 31 |  | 
COc1cc(-c2[nH]c3cnc(C4CCC(NCC(C)(C)F)CC4)c(C)c3c2C(C)C)cn2ncnc12 (stereo not drawn) [Example 244] | 583 | 8.9 | 16 |  | 
Cc1c(-c2[nH]c3cnc(N4CCNCC4)c(F)c3c2C(C)C)cn2ncnc2c1C [Example 393] | 8730 | 1.4 | 0.51 |  | 
COc1cc(-c2[nH]c3cnc(N4CCN(CC(N)=O)CC4)c(C)c3c2C(C)C)cn2ncnc12 [Example 155] | 6310 | 7.3 | 5 |  | 
Cc1cc(-c2[nH]c3cnc(C4CCN(CC(N)=O)CC4)c(F)c3c2C(C)C)cc(C)n1 [Example 152] | 4090 | 5 | 6.4 |  | 
COc1cc(-c2[nH]c3cnc(C4CCC(NCC5(C)COC5)CC4)c(C)c3c2C(C)C)cn2ncnc12 (stereo not drawn) [Example 270] | 392 | 2.6 | 3.2 |  | 
COc1cc(-c2[nH]c3cnc(C4CCC(NC5CCOC5)CC4)cc3c2C(C)C)cn2ncnc12 (stereo not drawn) [Example 342] | 224 | 3.8 | 8.3 |  | 
CNC(=O)CN1CCN(c2ncc3[nH]c(-c4cc(OC)c5ncnn5c4)c(C(C)C)c3c2C)CC1 [Example 40] | 8310 | 9.9 | 11 |  | 
COc1cc(-c2[nH]c3cnc(C4CCC(N5CC6(COC6)C5)CC4)c(F)c3c2C(C)C)cn2ncnc12 (stereo not drawn) [Example 161] | 293 | 2.4 | 4.6 |  | 
COc1cc(-c2[nH]c3cnc(C4CCC(N5CC6(COC6)C5)C4)cc3c2C(C)C)cn2ncnc12 (stereo not drawn) [Example 209] | 1080 | 29 | 97 |  | 
Cc1c(-c2[nH]c3cnc(C4CCN(C(C)C)CC4)cc3c2C(C)C)cn2ncnc2c1C [Example 35] | 154 | 1.7 | 2.8 |  | 
COc1cc(-c2[nH]c3cnc(N4CC5(C4)CN(C4COC4)C5)c(F)c3c2C(C)C)cn2ncnc12 [Example 369, 6-(4-fluoro-3-isopropyl-5-(6-(oxetan-3-yl)-2,6-diazaspiro[3.3]heptan-2-yl)-1H-pyrrolo[2,3-c]pyridin-2-yl)-8-methoxy-[1,2,4]triazolo[1,5-a]pyridine] | > 50000 | 27 | 23 |  | 
